Results taken from patent US8372799B2, “Reverse protein” (Apeptico Forschung und Entwicklung GmbH, priority 2007, dated 2013).

Target: T1, epithelial sodium channels (Homo sapiens, UniProt P37088+P51168+P51170)
T1 construct: endogenous in cells; host or cells: A549 human lung epithelial cells (ATCC CCL-185)
T1 sequence (P37088 1-669): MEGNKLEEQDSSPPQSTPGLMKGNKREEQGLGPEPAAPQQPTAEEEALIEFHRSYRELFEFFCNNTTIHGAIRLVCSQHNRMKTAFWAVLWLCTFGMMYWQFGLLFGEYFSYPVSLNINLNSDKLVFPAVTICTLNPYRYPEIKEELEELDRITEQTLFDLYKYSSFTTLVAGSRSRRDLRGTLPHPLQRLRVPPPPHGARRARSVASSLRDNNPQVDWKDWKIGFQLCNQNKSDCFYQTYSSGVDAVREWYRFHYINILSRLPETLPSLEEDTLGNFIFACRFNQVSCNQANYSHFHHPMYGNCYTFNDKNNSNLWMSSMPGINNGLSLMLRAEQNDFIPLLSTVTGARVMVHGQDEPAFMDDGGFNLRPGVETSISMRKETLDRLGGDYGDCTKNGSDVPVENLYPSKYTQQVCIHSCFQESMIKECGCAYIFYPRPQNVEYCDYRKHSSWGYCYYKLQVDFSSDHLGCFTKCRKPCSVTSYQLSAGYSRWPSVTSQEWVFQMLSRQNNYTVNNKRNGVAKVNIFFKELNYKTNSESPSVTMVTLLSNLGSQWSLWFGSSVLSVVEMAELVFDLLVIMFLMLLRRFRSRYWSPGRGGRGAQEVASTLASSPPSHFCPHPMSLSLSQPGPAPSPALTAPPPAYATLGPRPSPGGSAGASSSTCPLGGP
T1 sequence (P51168 1-640): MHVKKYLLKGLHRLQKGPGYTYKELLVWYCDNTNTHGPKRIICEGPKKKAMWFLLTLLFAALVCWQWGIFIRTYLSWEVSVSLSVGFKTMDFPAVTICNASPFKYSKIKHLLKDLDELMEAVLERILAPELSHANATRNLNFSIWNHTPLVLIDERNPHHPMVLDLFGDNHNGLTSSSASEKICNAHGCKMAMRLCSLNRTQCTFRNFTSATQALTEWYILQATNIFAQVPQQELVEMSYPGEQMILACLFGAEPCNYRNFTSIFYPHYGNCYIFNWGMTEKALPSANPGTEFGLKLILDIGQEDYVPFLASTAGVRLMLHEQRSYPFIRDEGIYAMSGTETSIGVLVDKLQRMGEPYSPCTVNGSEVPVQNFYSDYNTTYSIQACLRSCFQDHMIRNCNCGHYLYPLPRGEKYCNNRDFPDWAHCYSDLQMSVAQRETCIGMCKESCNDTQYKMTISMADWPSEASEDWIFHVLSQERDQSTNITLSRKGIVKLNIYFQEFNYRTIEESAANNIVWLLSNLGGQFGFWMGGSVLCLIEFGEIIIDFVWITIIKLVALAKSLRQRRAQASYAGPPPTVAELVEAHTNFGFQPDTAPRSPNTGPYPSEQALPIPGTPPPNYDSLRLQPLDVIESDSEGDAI
T1 sequence (P51170 1-649): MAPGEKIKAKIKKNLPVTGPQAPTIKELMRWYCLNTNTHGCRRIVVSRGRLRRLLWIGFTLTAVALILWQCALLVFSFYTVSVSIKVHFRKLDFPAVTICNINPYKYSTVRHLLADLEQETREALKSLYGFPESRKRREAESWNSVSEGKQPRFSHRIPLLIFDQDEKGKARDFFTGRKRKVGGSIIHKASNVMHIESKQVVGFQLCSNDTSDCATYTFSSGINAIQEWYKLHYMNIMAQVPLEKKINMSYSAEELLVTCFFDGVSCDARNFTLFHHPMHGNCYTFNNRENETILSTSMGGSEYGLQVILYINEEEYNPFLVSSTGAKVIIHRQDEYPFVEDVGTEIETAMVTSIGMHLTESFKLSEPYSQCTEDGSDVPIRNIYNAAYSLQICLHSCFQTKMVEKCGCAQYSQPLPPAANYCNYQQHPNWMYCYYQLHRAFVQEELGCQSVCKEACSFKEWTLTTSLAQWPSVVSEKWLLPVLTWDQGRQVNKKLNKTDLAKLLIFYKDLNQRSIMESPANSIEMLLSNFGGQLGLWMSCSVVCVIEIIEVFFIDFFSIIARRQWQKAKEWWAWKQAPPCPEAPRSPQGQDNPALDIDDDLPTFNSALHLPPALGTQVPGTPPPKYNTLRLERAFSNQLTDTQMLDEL
Test: Patch-clamp activation of sodium ion channels in A549 cells
Type: cell-based
Settings: 10 μM amiloride
Description: Furthermore, a method common in laboratories is to detect the activation of ion channels by means of patch-clamp experiments, and this is described, for example, in Clunes M. T. et al, J Physiol Volume 557, No. 3, 809-819 (Jun. 15, 2004). For patch-clamp examinations of ion channels, a glass cannula is stretched thin and filled with a neutral buffer solution. The glass cannula (patch-clamp pipette) is carefully pressed onto an intact epithelial cell. A piece of membrane is located below the pipette. An electrical resistance is thereby produced between the interior of the pipette and the external solution. An electrode attached to a sensitive amplifier dips into the pipette solution.
The electrophysiological experiments were performed on human A549 cells (ATTC No. CCL-185). A549 cells are human lung epithelial cells which are involved in the diffusion of water and electrolytes in the lungs.
The cells were suspended in DMEM-F-12 medium with 1% penicillin-streptomycin and 10% fetal calf serum, transferred into plastic cell culture vessels and cultivated in the incubator with 95% air and 5% CO2 at 37° C. The medium was changed 2 to 3 times per week. The cells double within approx. 22 hours and a cell concentration of more than 7×10^4 cells per cm^2 was not exceeded.
Macroscopic currents and single-channel currents were discharged from A549 cells in the “whole cell” and “cell-attached” configuration of the “patch-clamp” technique (Hamill et al, Pflugers Arch. 1981, 391(2):85-100, 1981). For the current dissipations in the “whole cell” configuration, the following bath and electrode solutions were used:
Bath solution: 135 mM sodium methane sulfonate, 10 mM NaCl, 2.7 mM KCl, 1.8 mM CaCl2, 2 mM MgCl2, 5.5 mM glucose, and 10 mM HEPES, pH 7.4. […]
The cover slips with the cells cultivated thereon were transferred into a test bath with a capacity of 1 ml, fixed on the microscope table (Axiovert 100, 400-fold magnification), and the cells were superfused with the above-described bath solution. […] In the “cell-attached” configuration, the current can be measured through individual ion channels beneath the electrode tip. In the “whole cell” configuration, the membrane was penetrated beneath the electrode tip so that the current flowing through all ion channels of the cell could be measured. […] Upon obtaining a Gigaohm seal, a defined membrane retaining potential was applied via a pre-amplifier (CV-4 Headstage, Axon Instruments) and an amplifier (Axopatch 1D, Axon Instr.) and the current thereby flowing through the ion channels was measured.
The pulse protocol consisted of a hyperpolarization to −100 mV for 1 s at an interval of 5 s. […] The current dissipations thus obtained were stored and analyzed by means of the program PCLAMP 6.0. […]

N=C(N)NC(=O)c1nc(Cl)c(N)nc1N [amiloride, reference compound]
inhibition of ion channels (patch clamp): inhibition of ion channels
